# Test results: article PMC5581033, “Targeting aldehyde dehydrogenase activity in head and neck squamous cell carcinoma with a novel small molecule inhibitor” (Oncotarget, 2017)
# What was measured:
# Experiment in all cases: purified recombinant isozyme activity assay, NADH formation at […] nm with acetaldehyde and NAD+
# Format in all cases: biochemical
# ALDH3A1 = molecular target: T1, ALDH3A1 (Homo sapiens, UniProt P30838)
# T1 sequence (P30838 2-453): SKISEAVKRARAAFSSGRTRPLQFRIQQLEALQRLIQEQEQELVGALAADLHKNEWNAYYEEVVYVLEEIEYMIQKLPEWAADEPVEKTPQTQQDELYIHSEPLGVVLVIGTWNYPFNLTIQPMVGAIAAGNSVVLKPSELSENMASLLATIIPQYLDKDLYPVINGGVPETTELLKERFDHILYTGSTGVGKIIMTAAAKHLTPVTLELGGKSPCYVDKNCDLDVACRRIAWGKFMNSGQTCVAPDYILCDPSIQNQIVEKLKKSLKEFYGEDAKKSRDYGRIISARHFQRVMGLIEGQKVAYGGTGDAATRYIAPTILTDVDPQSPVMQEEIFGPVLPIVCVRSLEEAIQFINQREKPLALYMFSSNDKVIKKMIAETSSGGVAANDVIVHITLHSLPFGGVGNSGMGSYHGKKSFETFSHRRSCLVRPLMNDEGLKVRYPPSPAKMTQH
# ALDH1A1 = molecular target: T2, ALDH1A1 (Homo sapiens, UniProt P00352)
# T2 sequence (P00352 2-501): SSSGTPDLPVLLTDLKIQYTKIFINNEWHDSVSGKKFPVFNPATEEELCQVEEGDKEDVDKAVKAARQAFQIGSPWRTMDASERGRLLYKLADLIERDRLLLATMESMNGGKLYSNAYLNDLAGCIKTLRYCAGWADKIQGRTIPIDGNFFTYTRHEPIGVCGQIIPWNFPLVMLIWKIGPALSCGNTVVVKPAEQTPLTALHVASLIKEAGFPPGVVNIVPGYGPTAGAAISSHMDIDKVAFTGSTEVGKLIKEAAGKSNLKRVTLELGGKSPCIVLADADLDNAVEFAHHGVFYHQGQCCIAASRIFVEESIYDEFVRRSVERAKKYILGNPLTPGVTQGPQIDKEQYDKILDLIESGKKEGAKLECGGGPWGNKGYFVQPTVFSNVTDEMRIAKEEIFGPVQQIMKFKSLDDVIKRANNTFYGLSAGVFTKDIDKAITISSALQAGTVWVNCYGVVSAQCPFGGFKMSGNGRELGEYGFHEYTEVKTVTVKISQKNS
# ALDH2 = molecular target: T3, ALDH2 (Homo sapiens, UniProt P05091)
# T3 sequence (P05091 18-517): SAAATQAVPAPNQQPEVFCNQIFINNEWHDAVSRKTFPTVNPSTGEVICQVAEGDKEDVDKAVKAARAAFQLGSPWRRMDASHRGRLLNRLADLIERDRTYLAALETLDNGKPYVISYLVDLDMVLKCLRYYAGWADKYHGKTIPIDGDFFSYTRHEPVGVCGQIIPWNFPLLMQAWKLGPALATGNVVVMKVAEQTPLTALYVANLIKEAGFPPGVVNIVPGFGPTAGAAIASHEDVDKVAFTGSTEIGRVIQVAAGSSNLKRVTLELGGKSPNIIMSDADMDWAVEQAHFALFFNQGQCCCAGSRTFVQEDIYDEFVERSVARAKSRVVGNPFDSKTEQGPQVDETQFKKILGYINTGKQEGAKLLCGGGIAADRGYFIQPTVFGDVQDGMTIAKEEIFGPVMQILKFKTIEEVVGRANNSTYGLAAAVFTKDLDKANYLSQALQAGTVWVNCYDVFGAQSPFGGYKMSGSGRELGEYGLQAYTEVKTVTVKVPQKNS
compound,measurement,setting,value
"CN(C)CCC(=O)c1ccc(Br)cc1 [Aldi-6, 3-(Dimethylamino)-4′-bromopropiophenone]",IC50,ALDH3A1,1000 nM
same,IC50,ALDH1A1,600 nM
same,IC50,ALDH2,800 nM
